Measurements from patent US8906825B2, “Herbicidal compositions comprising 4-amino-3-chloro-5-fluoro-6-(4-chloro-2-fluoro-3-methoxyphenyl) pyridine-2-carboxylic acid or a derivative thereof and triazolopyrimidine sulfonamides” (Dow AgroSciences LLC, priority 2012, dated 2014).

Experiments:
Type in all cases: in vivo
[1] = tested on: LEFCH (Leptochloa chinensis (L.) Nees, Chinese sprangletop); experiment: In-water applied herbicidal mixtures, transplanted paddy rice, greenhouse (Example II)
Procedure: Weed seeds or nutlets of the desired test plant species were planted in puddled soil (mud) prepared by mixing a shredded, non-sterilized mineral soil (50.5 percent silt, 25.5 percent clay, and 24 percent sand, with a pH of about 7.6 and an organic matter content of about 2.9 percent) and water at a 1:1 volumetric ratio. The prepared mud was dispensed in 365 mL aliquots into 16-ounce (oz.) non-perforated plastic pots with a surface area of 86.59 square centimeters (cm^2) leaving a headspace of 3 centimeters in each pot. Mud was allowed to dry overnight prior to planting or transplanting. Rice seeds were planted in Sun Gro MetroMix® 306 planting mixture, which typically has a pH of 6.0 to 6.8 and an organic matter content of about 30 percent, in plastic plug trays. Seedlings at the second or third leaf stage of growth were transplanted into 840 mL of mud contained in 32-oz. non-perforated plastic pots with a surface area of 86.59 cm^2 4 days prior to herbicide application. The paddy was created by filling the headspace of the pots with 2.5 to 3 cm of water. When required to ensure good germination and healthy plants, a fungicide treatment and/or other chemical or physical treatment was applied. The plants were grown for 4-22 days in a greenhouse with an approximate 14 h photoperiod which was maintained at about 29′C during the day and about 26° C. during the night. Nutrients were added as Osmocote® (19:6:12, N:P:K+minor nutrients) at 2 g per 16-oz. pot and 4 g per 32-oz. pot. Water was added on a regular basis to maintain the paddy flood, and supplemental lighting was provided with overhead metal halide 1000-Watt lamps as necessary. The plants were employed for testing when they reached the first through fourth true leaf stage.
Treatments consisted of the acid or esters of 4-amino-3-chloro-5-fluoro-6-(4-chloro-2-fluoro-3-methoxy-phenyl)pyridine-2-carboxylic acid (compound A) each formulated as an SC and various herbicidal components alone and in combination. Forms of compound A were applied on an acid equivalent basis.
Other herbicidal components were applied on an active ingredient basis and included acetolactate synthase (ALS)-inhibiting herbicides (sulfonamide chemical class) penoxsulam formulated as Grasp® SC (GF-443), diclosulam formulated as Strongarm®, and cloransulam-methyl formulated as FirstRate®.
Treatment requirements for each compound or herbicidal component were calculated based upon the rates being tested, the concentration of active ingredient or acid equivalent in the formulation, an application volume of 2 mL per component per pot, and an application area of 86.59 cm^2 per pot.
For formulated compounds, a measured amount was placed in an individual 100 or 200 mL glass vial and was dissolved in a volume of 1.25% (v/v) Agri-Dex® crop oil concentrate to obtain each application solution.
Applications were made by injecting with a pipetter appropriate amounts of the application solutions, individually and sequentially, into the aqueous layer of the paddy. Control plants were treated in the same manner with the solvent blank. Applications were made so that all treated plant material received the same concentrations of acetone and crop oil concentrate.
The treated plants and control plants were placed in a greenhouse as described above and water was added as needed to maintain a paddy flood. After approximately 3 weeks the condition of the test plants as compared with that of the untreated plants was determined visually and scored on a scale of 0 to 100 percent where 0 corresponds to no injury or growth inhibition and 100 corresponds to complete kill.
Colby's equation was used to determine the herbicidal effects expected from the mixtures (Colby, S. R. 1967. Calculation of the synergistic and antagonistic response of herbicide combinations. Weeds 15:20-22.).
The following equation was used to calculate the expected activity of mixtures containing two active ingredients, A and B: Expected=A+B−(A×B/100)

[2] = tested on: BRAPP (Brachiaria platyphylla (Griseb.) Nash, broadleaf signalgrass); experiment: Postemergence field trials in direct-seeded rice, United States (Example IV); settings: foliar
Procedure: (§1) Multiple post-emergence field trials were conducted under field conditions in Tolima, Colombia; Thessaloniki, Greece; Ottobiano and Copiano, Italy; Greenville, Miss. and Eagle Lake, Tex., USA; and water-injected treatments were tested at Ryugasaki, Japan. Trial sites were located in commercially grown fields of direct-seeded rice (Oryza sativa) using standard herbicide small plot research methodology, except in Japan where transplanted rice was utilized for the field trial. Post-emergence trial plot size varied from 2 to 3 meter (m)×5 to 8 m (width×length) with 4 replicates per treatment. Water-injected trial plot size was 2×2 m with 3 replicates per treatment. The rice crop was grown using normal cultural practices for fertilization, seeding, watering, flooding and maintenance to ensure good growth of the crop and the weeds.
(§2) All treatments in the post-emergence field trials were applied using a backpack compressed air/gas sprayer with flat fan nozzles (80° or 110°) calibrated to apply 187 to 300 L/ha spray volume at approximately 200-400 kPa nozzle pressure. In Japan, treatments were water-injected applied where the specified amount of commercial product was mixed in 100 mls of water per replicate and applied directly into 3 cm deep water containing the crop and weeds. Treatments consisted of the benzyl ester of 4-amino-3-chloro-5-fluoro-6-(4-chloro-2-fluoro-3-methoxy-phenyl)pyridine-2-carboxylic acid (Compound A), formulated as an SC (suspension concentrate), and various herbicidal components alone and in combination.
(§3) Commercially available products of penoxsulam (Viper 20OD® (Europe), Grasp 240SC® (USA), and Wideattack 37.5SC® (Japan)) were mixed in water at appropriate formulated product rates to achieve the desired rates based on a unit area of application (hectare) to achieve the desired rates as shown. Treatments were rated at 15 to 56 days after application (DAA) as compared to the untreated control plants. Visual weed control was scored on a scale of 0 to 100 percent where 0 corresponds to no injury and 100 corresponds to complete kill.
(§4) All treatment results, both for the single product and mixtures, are an average of 3 to 4 replicates. The trial sites had naturally occurring populations of weeds. The weed spectrum included, but was not limited to, broadleaf signalgrass (Brachiaria platyphylla (Griseb.) Nash or Urochloa platyphylla (Nash) R.D. Webster, BRAPP), smallflower umbrellaplant (Cyperus difformis L., CYPDI), yellow nutsedge (Cyperus esculentus L., CYPES), multiple Echinochloa species in the same field (ECHSS) in Italy (mixed ECHSS biotypes), Amazon sprangletop (Leptochloa panicoides (J. Presl) A.S. Hitchc., LEFPA), and Japanese bulrush (Schoenoplectus juncoides (Roxb.) Palla, SCPJU).

[3] = tested on: LEFPA (Leptochloa panicoides(Presl.) Hitchc., Amazon sprangletop); experiment: as above; settings: foliar
Procedure: as §1, §2, §3, §4

[4] = tested on: CYPDI (Cyperus difformis L., smallflower umbrella sedge); experiment: Postemergence field trials in direct-seeded rice, Greece and Italy (Example IV); settings: foliar
Procedure: as §1, §2, §3, §4

[5] = tested on: CYPES (Cyperus esculentus L., yellow nutsedge); experiment: as above; settings: foliar
Procedure: as §1, §2, §3, §4

[6] = tested on: ECHSS (Echinochloa spp.); experiment: as above; settings: foliar
Procedure: as §1, §2, §3, §4

[7] = tested on: SCPJU (Schoenoplectus juncoides Roxb., Japanese bulrush); experiment: Water-injected field trial in transplanted rice, Japan (Example IV)
Procedure: as §1, §2
Commercially available products of penoxsulam (Viper 20OD® (Europe), Grasp 240SC® (USA), and Wideattack 37.5SC® (Japan)) were mixed in water at appropriate formulated product rates to achieve the desired rates based on a unit area of application (hectare) to achieve the desired rates as shown. Treatments were rated at 15 to 56 days after application (DAA) as compared to the untreated control plants. Visual weed control was scored on a scale of 0 to 100 percent where 0 corresponds to no injury and 100 corresponds to complete kill. […]

[8] = Compound A Benzyl Ester 24 gae/ha

Structure (SMILES)	Visual Weed Control (%) - 25 DAA LEFCH Obs ([1]; Penoxsulam 17.5 gai/ha, Table 11) [%]	Visual Weed Control (%) - 25 DAA LEFCH Obs ([1]; Penoxsulam 35 gai/ha, Table 10) [%]	Visual Weed Control (%) - 25 DAA LEFCH Obs ([1]; Penoxsulam 35 gai/ha, Table 11) [%]	Visual Weed Control (%) - 15-19 DAA BRAPP Obs ([2]; Penoxsulam 40 gai/ha) [%]	Visual Weed Control (%) - 15-19 DAA LEFPA Obs ([3]; Penoxsulam 40 gai/ha) [%]	Visual Weed Control (%) - 54-56 DAA CYPDI Obs ([4]; Penoxsulam 40 gai/ha) [%]	Visual Weed Control (%) - 54-56 DAA CYPES Obs ([5]; Penoxsulam 40 gai/ha) [%]	Visual Weed Control (%) - 54-56 DAA ECHSS Obs ([6]; Penoxsulam 40 gai/ha) [%]	Visual Weed Control (%) - 28 DAA SCPJU Obs ([7]; Penoxsulam 50 gai/ha) [%]	Visual Weed Control (%) - 25 DAA LEFCH Obs ([1]; Compound A Benzyl Ester 8.75 gae/ha) [%]	Visual Weed Control (%) - 25 DAA LEFCH Obs ([1]; Compound A Benzyl Ester 17.5 gae/ha) [%]	Visual Weed Control (%) - 15-19 DAA BRAPP Obs ([2]; Compound A Benzyl Ester 32 gae/ha) [%]	Visual Weed Control (%) - 15-19 DAA LEFPA Obs [3, 8] [%]	Visual Weed Control (%) - 54-56 DAA CYPDI Obs [4, 8] [%]	Visual Weed Control (%) - 54-56 DAA CYPES Obs [5, 8] [%]	Visual Weed Control (%) - 54-56 DAA ECHSS Obs [6, 8] [%]	Visual Weed Control (%) - 28 DAA SCPJU Obs ([7]; Compound A Benzyl Ester 150 gae/ha) [%]	Visual Weed Control (%) - 28 DAA SCPJU Obs ([7]; Compound A Benzyl Ester 200 gae/ha) [%]
COc1cnc(OC)n2nc(NS(=O)(=O)c3c(OCC(F)F)cccc3C(F)(F)F)nc12 [Penoxsulam, 2-(2,2-difluoroethoxy)-N-(5,8-dimethoxy[1,2,4]triazolo[1,5-c]pyrimidin-2-yl)-6-(trifluoromethyl)benzenesulfonamide, reference compound]	0	40	40	35	16	0	55	50	20	–	–	–	–	–	–	–	–	–
COc1c(Cl)ccc(-c2nc(C(=O)OCc3ccccc3)c(Cl)c(N)c2F)c1F [Compound A Benzyl Ester, benzyl ester of 4-amino-3-chloro-5-fluoro-6-(4-chloro-2-fluoro-3-methoxy-phenyl)pyridine-2-carboxylic acid]	–	–	–	–	–	–	–	–	–	50	90	62	53	81	15	40	22	25
